Test results taken from patent US7393640B2, “Terminal-phosphate-labeled nucleotides with new linkers” (GE Healthcare Bio-Sciences Corp., priority 2003, dated 2008).
Read-outs that look alike come from different tables or passages of the source.

What was measured:
[1] = tested on: cloned DNA polymerase I genetically engineered to eliminate 3′-5′ exonuclease activity, 5′-3′ exonuclease activity and discrimination against …; assay: Template-directed incorporation of gamma phosphate-labeled ddNTP with shrimp alkaline phosphatase, fluorescence read-out; format: biochemical; settings: 2 μM nucleotide, 5 mM MgCl2, 0.25 mM MnCl2, shrimp alkaline phosphatase
Description: Reactions were assembled at room temperature (23° C.) using the dideoxynucleotide of Example (1).
Referring now to FIG. 1, for template 1 (SEQ ID NO: 2) in the present example, DNA polymerase would be expected to extend the primer with labeled ddGTP. Similarly, for template 2 (SEQ ID NO: 3) in FIG. 1, DNA polymerase would be expected to extend the primer with ddATP, but not with labeled ddGTP.
(§1) Reaction conditions: A 70 μl reaction containing 25 mM Tris, pH 8.0, 5% glycerol 5 mM MgCl2, 0.5 mM beta-mercaptoethanol, 0.01% tween-20, 0.25 units shrimp alkaline phosphatase, 100 nM primer annealed to template (the next template nucleotide is either dCMP or dTMP, as indicated), and 2 μM ddGTP-CF3-Coumarin was assembled in a quartz fluorescence ultra-microcuvet in a LS-55 Luminescence Spectrometer (Perkin Elmer), operated in time drive mode. Excitation and emission wavelengths are 390 nm and 500 nm respectively. Slit widths were 5 nm for excitation slits, 15 nm for emission slits. The reaction was initiated by the addition of 0.35 μl (11 units) of a cloned DNA polymerase I genetically engineered to eliminate 3′-5′ exonuclease activity, 5′-3′ exonuclease activity and discrimination against dideoxynucleotides and 0.25 mM MnCl2.
Reactions were assembled at room temperature (23° C.) using the dideoxynucleotide of Example (2).
Referring now to FIG. 2, for template 2 (SEQ ID NO: 3) in the present example, DNA polymerase would be expected to extend the primer with labeled ddATP. Similarly, for template 1 (SEQ ID NO: 2) in FIG. 2, DNA polymerase would be expected to extend the primer with ddGTP, but not with labeled ddATP.
as §1, with “template,” for “template (the next template nucleotide is either dCMP or dTMP, as indicated),”, “ddATP-CN-Coumarin” for “ddGTP-CF3-Coumarin”, “410” for “390”, “450” for “500”

Phi 29 exo-polymerase = settings: 0.7 mM MnCl2 only, 25 uM nucleotide, template SEQ ID NO: 4 (FIG. 6)
Sequence of Phi 29 exo-polymerase (P03680 190-575 limits assumed): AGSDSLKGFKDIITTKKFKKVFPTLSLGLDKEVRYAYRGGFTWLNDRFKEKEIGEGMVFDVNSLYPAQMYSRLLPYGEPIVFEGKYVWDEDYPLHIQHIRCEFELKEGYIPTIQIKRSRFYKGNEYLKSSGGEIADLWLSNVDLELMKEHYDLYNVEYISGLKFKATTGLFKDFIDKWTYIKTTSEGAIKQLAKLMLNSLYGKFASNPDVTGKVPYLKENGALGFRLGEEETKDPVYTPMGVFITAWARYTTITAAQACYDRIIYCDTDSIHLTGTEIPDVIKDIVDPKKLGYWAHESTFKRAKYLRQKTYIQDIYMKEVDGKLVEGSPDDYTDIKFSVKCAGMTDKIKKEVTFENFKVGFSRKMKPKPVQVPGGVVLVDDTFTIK
Description: Using the same primer as in example 9 and template (SEQ ID NO: 4), incorporation of dCTP-DAH-ROX at various times after the reaction was initiated, was investigated. Assay conditions were as follows: Total reaction volume: 30 ul containing 100 nM primer/template, 100 nM Phi 29 exo-polymerase, 50 mM Tris pH 7.5, 75 mM KCl, 0.7 mM MnCl2, 0.1 mM DTT, 0.3 mg/ml BSA. Reaction was initiated by addition of ROX-dCTP to a conc. of 25 uM.

[2] = tested on: Thermo Sequenase I DNA polymerase; assay: Relative incorporation of phosphate labeled versus base labeled nucleotides in magnesium or manganese buffer; format: biochemical; settings: 5 mM MnCl2 vs 5 mM MgCl2, 1 μM nucleotide, 50 degrees C., 10 minutes
Description: Reactions (10 μl, 50 degrees C., 10 minutes) contained 1× reaction buffer (25 mM HEPES 8.5, 0.01% tween-20), 3 μg activated DNA (Chromosomal DNA), 5 mM either MnCl2 (circles) or MgCl2 (squares), 1 μM either FAM-TAM-11-ddTTP (dashed lines) or ddT4P-DDAO (solid lines), with a serial 4 fold dilution of Thermo Sequenase I™ DNA polymerase from 10 units per reaction down to 0.01 units per reaction. Results (FIG. 3) were plotted out both on a linear scale and logarithmic scale to show both linearity with enzyme and relative incorporation efficiency.

various polymerases = assay: Effect of MnCl2 on incorporation of terminal-phosphate labeled nucleotide on oligo dT/poly dA; format: biochemical; settings: 10 uM nucleotide, 60° C.
Description: Oligo dT (35mer) was annealed with poly dA by mixing equal volumes of each at 20 uM conc, and incubating at 80° C. for 4 min and instant cooling on ice. 1 ul of this solution was mixed into a 20 ul reaction containing 25 mM Hepes, pH 8.0, 0.01% Tween-20, 10 uM dT4P-DDAO, 0.005 u/ul BAP, a polymerase at concentrations shown in FIG. 7 and various concentrations of MnCl2—and MgCl2.

[3] = Primer: Template 1 (SEQ ID NO: 2), next template nucleotide dC
[4] = Primer: Template 2 (SEQ ID NO: 3), next template nucleotide dT

Nc1nc2c(ncn2[C@H]2CC[C@@H](COP(=O)(O)OP(=O)(O)OP(=O)(O)Oc3ccc4c(C(F)(F)F)cc(=O)oc4c3)O2)c(=O)[nH]1 [gamma labeled ddGTP, γ-(4-trifluoromethylcoumarinyl)dideoxyguanosine-5′-triphosphate]
dye emission [1, 3]: dye emission was detected
dye emission [1, 4]: No detectable dye emission

ROX-amidoheptyl-gamma-amido-deoxycytidine-triphosphate [dCTP-DAH-ROX]
misincorporation (Phi 29 exo-polymerase): no misincorporation takes place
misincorporation (Phi 29 exo-polymerase; listed as dCTP-γ-ROX): No misincorporation was observed

Cc1cn([C@H]2CC[C@@H](COP(=O)(O)OP(=O)(O)OP(=O)(O)OP(=O)(O)Oc3ccc4c(c3)C(C)(C)C3=C(Cl)C(=O)C(Cl)=CC3=N4)O2)c(=O)[nH]c1=O [ddT4P-DDAO, δ-9H(1,3-dichloro-9,9-dimethylacridin-2-one-7-yl)-dideoxythymidine-5′-tetraphosphate]
increase in incorporation efficiency in the manganese buffer relative to the magnesium buffer [2]: 28 fold

Cc1cn([C@H]2C[C@H](O)[C@@H](COP(=O)(O)OP(=O)(O)OP(=O)(O)OP(=O)(O)Oc3ccc4c(c3)C(C)(C)C3=C(Cl)C(=O)C(Cl)=CC3=N4)O2)c(=O)[nH]c1=O [dT4P-DDAO, 2′-Deoxythymidine-5′-(δ-7-(9H-(1,3-dichloro-9,9-dimethylacridin-2-one)))tetraphosphate]
rate of incorporation in the absence of MnCl2 (various polymerases; 15 or 30 minutes (FIG. 7)): extremely slow
effect of MnCl2, alone or in the presence of MgCl2, on the rate of incorporation (various polymerases; 15 or 30 minutes, all the polymerases tested (FIG. 7)): major positive impact on the rate of incorporation

N#Cc1cc2ccc(OP(=O)(O)OP(=O)(O)OP(=O)(O)OC[C@@H]3CC[C@H](n4cnc5c(N)ncnc54)O3)cc2oc1=O [gamma labeled ddATP, γ-(3-cyanocoumarinyl)dideoxyadenosine-5′-triphosphate]
dye emission [1, 3]: No detectable dye emission
dye emission [1, 4]: dye emission was detected
